Test results taken from US20210186925A1, “Applications Of YD1701 In Preparation Of Drugs For Treating ALDH1A3 High-Expression Tumors” (First Affiliated Hospital Third Military Medical University …, priority 2017, published 2021).

Tested on: orthotopic CRC transplanted tumors
Assay: orthotopic CRC transplanted tumors in mice
Assay type: in vivo
Settings: YD1701 1 mg·kg^−1, 5-FU 10 mg·kg^−1, intraperitoneal, two weeks; three groups compared; FIG. 20
Procedure: To further assess the therapeutic potential of the YD1701, the inhibiting effects of the YD1701 and 5-FU(5-fluorouracil) on orthotopic CRC transplanted tumors in the mice are compared, and the experimental process is shown in FIG. 17. On the 20th day after the colons of mice of YD1701 are implanted with tumor micro-tissue blocks orthotopically, and the formation of the orthotopic transplanted tumors is determined by an in-vivo imaging system. […] Then, the determined mice with the orthotopic transplanted tumors are divided into three groups and subjected to intraperitoneal injection of YD1701 (1 mg·kg^−1), normal saline+DMSO and 5-FU (10 mg·kg^−1) for treatment for two weeks. The total survival time of the three groups of mice with the orthotopic transplanted tumors is compared.

SMILES: O=c1[nH]cc(F)c(=O)[nH]1 [5-FU, 5-fluorouracil]
- volume sizes of the tumors in situ in the colons: no obvious difference
